Drawing on PubChem BioAssay (NCI), this text covers GI50 and TGI for 6 compounds.

Where “and” joins values, the source holds several entries; their conditions need not be identical. Equal values may be shown once.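 Compound exposure: 48 hours, 5 concentrations, 96-well plates. At the GI50, growth is halved. Definition used: TGI = concentration required for complete inhibition of growth.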

Among the test systems are HCC-2998 colon; HL-60(TB) leukemia; SNB-75 CNS; EKVX NSCLC; NCI-H460 lung; OVCAR-5 ovarian; MDA-MB-231 breast; SK-MEL-28 melanoma; NCI-H23 lung; SK-MEL-5 melanoma.
Holding throughout (assay): NCI anticancer screen, dose series, 48 h

Consider `NNC(=S)N/N=C/c1ccccn1`, for which the GI50 was 3.12 µM in the experiment on HCC-2998 colon; 1.74 µM in the experiment with HL-60(TB) leukemia; 1.72 µM with SNB-75 CNS; 4.5 µM with EKVX NSCLC; 1.23 µM in the experiment on NCI-H460 lung; 3.68 µM in the experiment on OVCAR-5 ovarian. Further, the GI50 in the experiment on MDA-MB-231 breast was 0.699 µM; with SK-MEL-28 melanoma, 4.47 µM; in the experiment with NCI-H23 lung, 3.54 µM; in the experiment with SK-MEL-5 melanoma it was 2.63 µM. The TGI in the experiment with HCC-2998 colon is greater than 100 µM; in the experiment on HL-60(TB) leukemia it was 5.92 µM; with SNB-75 CNS, 11.4 µM; in the experiment with EKVX NSCLC it was greater than 100 µM; in the experiment on NCI-H460 lung, 8.54 µM; in the experiment on OVCAR-5 ovarian, greater than 100 µM. For the same compound, the TGI was greater than 100 µM in the experiment on MDA-MB-231 breast, greater than 100 µM with SK-MEL-28 melanoma, greater than 100 µM with NCI-H23 lung and 22.3 µM in the experiment on SK-MEL-5 melanoma.

On to `CCOC(=O)Nc1nc(-c2ccccc2)c(C)s1`, for which the TGI in the experiment with HCC-2998 colon was greater than 100 µM; in the experiment on HL-60(TB) leukemia, 90.5 µM; with SNB-75 CNS, greater than 100 µM; in the experiment on EKVX NSCLC, greater than 100 µM; with NCI-H460 lung, greater than 100 µM; in the experiment on OVCAR-5 ovarian, greater than 100 µM. Besides, the TGI in the experiment with MDA-MB-231 breast, with SK-MEL-28 melanoma, in the experiment with NCI-H23 lung and with SK-MEL-5 melanoma was greater than 100 µM throughout.

Take `COc1ccc(/C=C/C(=O)c2ccc(B(O)O)cc2)cc1O`: the GI50 in the experiment on HCC-2998 colon was 6.46 µM; in the experiment with HL-60(TB) leukemia, 2.52 µM; in the experiment with SNB-75 CNS it was 9.9 µM; with NCI-H460 lung, 19.8 µM; in the experiment on OVCAR-5 ovarian it was 21.5 µM; with MDA-MB-231 breast, 20.2 µM. Besides, the figures for the GI50 in the experiment with SK-MEL-28 melanoma, in the experiment on NCI-H23 lung and in the experiment on SK-MEL-5 melanoma were 22.3 µM, 21 µM and 14.6 µM, respectively. In addition, the TGI in the experiment with HCC-2998 colon was 18.6 µM; in the experiment on HL-60(TB) leukemia it was 44.2 µM; with SNB-75 CNS, 31.2 µM; in the experiment on NCI-H460 lung, greater than 83.4 µM; in the experiment on OVCAR-5 ovarian, 69.5 µM; with MDA-MB-231 breast, greater than 85 µM. For the same compound, the TGI was greater than 89.5 µM in the experiment with SK-MEL-28 melanoma, 69.4 µM with NCI-H23 lung and 37.5 µM with SK-MEL-5 melanoma.

On to `COc1ccc(-c2nc(Nc3ccc(F)cc3)nc(Nc3ccc4c(c3)nc(C)n4Cc3ccccc3)n2)cc1`, for which the GI50 with HCC-2998 colon was 5.85 µM; with HL-60(TB) leukemia it was 4.54 µM; in the experiment with SNB-75 CNS it was 2.83 µM; in the experiment on NCI-H460 lung it was 3.35 µM; in the experiment on OVCAR-5 ovarian it was 3.26 µM; with MDA-MB-231 breast it was 3.64 µM. Besides, the GI50 was 4.14 µM in the experiment on SK-MEL-28 melanoma, 6.54 µM with NCI-H23 lung and 3.2 µM in the experiment on SK-MEL-5 melanoma. For the same compound, the TGI was greater than 100 µM in the experiment on HCC-2998 colon; greater than 100 µM with HL-60(TB) leukemia; greater than 100 µM in the experiment with SNB-75 CNS; 20.9 µM with NCI-H460 lung; 68.9 µM in the experiment with OVCAR-5 ovarian; 18.9 µM in the experiment with MDA-MB-231 breast. For the same compound, the values for the TGI in the experiment on SK-MEL-28 melanoma, with NCI-H23 lung and in the experiment on SK-MEL-5 melanoma were greater than 100 µM, greater than 100 µM and 24.2 µM, respectively.

For the compound `O=C1NC(=N[C@@H]2C[C@H]2c2ccccc2)S/C1=C\c1ccc2ncccc2c1`, the GI50 was 1.93 µM in the experiment with HCC-2998 colon; 0.876 µM in the experiment on HL-60(TB) leukemia; 1.02 µM with SNB-75 CNS; 1.32 µM in the experiment with NCI-H460 lung; 4.33 µM with OVCAR-5 ovarian; 5.02 µM in the experiment with MDA-MB-231 breast. Also, the values for the GI50 in the experiment with SK-MEL-28 melanoma, in the experiment with NCI-H23 lung and in the experiment with SK-MEL-5 melanoma were 4.46 µM, 3.87 µM and 3.93 µM, respectively. The TGI in the experiment on HCC-2998 colon is 18.4 µM; with HL-60(TB) leukemia, 9.47 µM; in the experiment with SNB-75 CNS, 5.17 µM; with NCI-H460 lung, 6.79 µM; with OVCAR-5 ovarian, greater than 20.7 µM; in the experiment on MDA-MB-231 breast, 22.4 µM. In addition, the TGI in the experiment with SK-MEL-28 melanoma was greater than 18 µM; with NCI-H23 lung it was 20.8 µM; in the experiment with SK-MEL-5 melanoma, 9.2 µM.

Take `COC(=O)CC12CC(NC(=O)c3csc([C@@H](C[C@H](C(C)C)N(C)C(=O)[C@@H](NC(=O)[C@H]4CCCCN4C)C(C)C)OC(C)=O)n3)(C1)C2`: the GI50 is 0.0303 µM and 0.0148 µM in the experiment on HCC-2998 colon; 0.00282 µM and 0.00685 µM in the experiment on HL-60(TB) leukemia; 0.00265 µM in the experiment on SNB-75 CNS; 0.00949 µM and 0.0229 µM with EKVX NSCLC; 0.00322 µM and 0.0116 µM in the experiment on NCI-H460 lung; 0.0049 µM and 0.0165 µM in the experiment with OVCAR-5 ovarian. The GI50 is 0.00661 µM and 0.0152 µM with MDA-MB-231 breast; 0.0098 µM and 0.0167 µM in the experiment with NCI-H23 lung; 0.00191 µM and 0.00412 µM in the experiment with SK-MEL-5 melanoma. Moreover, the TGI with HCC-2998 colon is greater than 33.3 µM; in the experiment on HL-60(TB) leukemia it was 0.0111 µM and 0.0181 µM; in the experiment with EKVX NSCLC, greater than 33.3 µM; with NCI-H460 lung, greater than 33.3 µM; with OVCAR-5 ovarian, greater than 33.3 µM; in the experiment on MDA-MB-231 breast, 0.0958 µM and 0.515 µM. The TGI in the experiment on NCI-H23 lung was greater than 33.3 µM; in the experiment with SK-MEL-5 melanoma, 0.0487 µM and 0.074 µM.
